Results: patent US20190110478A1, “ANTIBACTERIAL COMPOSITION, ANTIBACTERIAL FILM, ANTIBACTERIAL FILM-ATTACHED SUBSTRATE, METHOD FOR MANUFACTURING ANTIBACTERIAL FILM, AND METHOD FOR MANUFACTURING ANTIBACTERIAL FILM-ATTACHED SUBSTRATE” (FUJIFILM Corporation, priority 2016, published 2019)

Experiment: Viscosity characteristics of water-insoluble nitrogen-containing compound (rotary viscometer)
Format: physicochemical
Settings: 1% by mass solid content in propylene glycol monomethyl ether, 25° C.
Experimental: In a case in which a water-insoluble nitrogen-containing compound is dissolved in propylene glycol monomethyl ether to obtain a solution having a solid content of 1% by mass, the viscosity of the solution at 25° C. as measured using a rotary viscometer is 10 mPa·s or higher.

## CC(C)(C)c1ccc(O)c(-n2nc3ccccc3n2)c1 [TINUVIN PS]
  Viscosity of solution: 2.1 mPa·s
